In publication PMC8877008, “Synthesis and Structure–Activity Relationship Studies of Benzimidazole-4,7-dione-Based P2X3 Receptor Antagonists as Novel Anti-Nociceptive Agents” (Molecules, 2022):

Biological target: T1, hP2X3R (Homo sapiens, UniProt P56373)
T1 construct: expressed in transfected cells
T1 sequence (P56373 1-397): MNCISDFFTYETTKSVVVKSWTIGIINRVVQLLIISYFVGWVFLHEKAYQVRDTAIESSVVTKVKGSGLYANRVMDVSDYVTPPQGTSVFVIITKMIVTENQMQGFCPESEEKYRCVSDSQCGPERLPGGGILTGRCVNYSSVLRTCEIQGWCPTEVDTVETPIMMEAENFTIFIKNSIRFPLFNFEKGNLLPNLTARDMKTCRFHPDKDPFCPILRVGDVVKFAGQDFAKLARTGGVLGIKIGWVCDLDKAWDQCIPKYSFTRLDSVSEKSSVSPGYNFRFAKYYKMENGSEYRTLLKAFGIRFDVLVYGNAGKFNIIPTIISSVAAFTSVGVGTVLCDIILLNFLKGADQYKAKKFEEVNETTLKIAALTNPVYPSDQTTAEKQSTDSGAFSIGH
Assay: Calcium influx (Fluo-4) evoked by α,β-meATP in HEK293 cells stably expressing hP2X3R
Format: cell-based
Conditions: antagonistic activity; HEK293 cells expressing hP2X3R; agonist at EC70
Protocol: For the evaluation of P2XR activities, a cell-based assay system was employed to measure the level of fluorescence emission, based on Fluo-4 dye, during Ca^2+ influx evoked by αβmeATP in HEK293 cells stably expressing hP2X2/3R and hP2X3R. The library containing 8364 representative compounds for the screening of antagonistic activity was provided by the Korea Chemical Bank. The antagonistic activities were evaluated in the presence of P2X3R agonist of the concentration for EC70 value (200–250 nM for hP2X3R and 1–4 μM for hP2X2/3R highly expressed cell lines), and AF353 was used as the positive control antagonist for comparison. For the first round of screening, a single concentration (25 μM) of each library compound was tested to identify initial hit compounds, which were subsequently validated using both concentrations of 25 and 10 μM. Using a cut-off threshold of higher than 50% antagonistic activity and after confirming dose-dependency, 12 main hit compounds were selected.
3.4. Cell-Based Assay: Measurement of Calcium Influx by Fluorescence-Based Fluo-4 Dye Uptake in HEK293 Cells Expressing hP2X2/3 and hP2X3 Receptors
Human P2X3-expressing HEK293 cells were grown in DMEM supplemented with 10% fetal bovine serum and 1% antibiotic–antimycotic as a monolayer culture at 37 °C in a humidified atmosphere of 5% CO2. The 96-well black plates used in the experiments were prepared by coating them with 1× poly-D-lysine (A3890401, Thermo-Fisher Scientific Korea, Seoul, South Korea). An aliquot of 40 μL 1× poly-D-lysine was used to treat each of the wells in a flat orientation. After leaving the plates for at least 4 h to absorb the poly-D-lysine, the plates were allowed to dry for at least 6 h. The DMEM used in the culture of HEK293 cells was removed from the dish, followed by application of 3 mL 1× PBS for washing. Removal of 1× PBS was followed by application of 1 mL trypsin/EDTA, and the cells were collected by centrifugation at 1200 rpm for 2 min. The supernatant was removed, and 1 mL fresh DMEM added. The cells were resuspended in media and plates prepared with 4.8 × 10^4 cells/well in 56 μL/well. After 18 h of cell culture in the 96-well black plate, 56 μL of Fluo-4 dye (Fluo-4 Direct^TM Calcium Assay Kit, F10471, Invitrogen, Thermo-Fisher Scientific Korea, Seoul, South Korea) was added to each well, prepared according to the manufacturer’s protocol, and incubated for 50 min~1 h under culturing conditions. Then, 12.4 μL of the appropriate compound solution was added to each well, and the positive control was AF353 (A1612, Sigma Aldrich Korea, Seoul, South Korea) and the negative control was 5% DMSO. Plates were incubated at room temperature and sealed to avoid interference from light for 50 min~1 h. Flexstation 3 and its software provided by Molecular Devices was used for the measurement of fluorescence in real time of treatments using prepared α,β-meATP (M6517, Sigma Aldrich) solution to evoke calcium influx and increased cell membrane potential.
For the analysis of antagonistic activities, all data were calculated by Origin Pro 9.1 software provided by Originlab and the fitting of graphs was proceeded by the growth/sigmoidal and hill1 process within no weights for data selections. For the analysis of the behavioral assessments of pain models, all data are expressed as mean ± SEM. The dose–response data are presented as percentages of the maximum possible effect. Statistical significance was analyzed by independent t-test. The criterion for statistical significance was p < 0.05. The statistical analysis was performed using SPSS 25.0 software (IBM Corp., Armonk, NY, USA).

O=C1C(NC2CCN(C(=O)c3ccc(F)c(F)c3)CC2)=C(Cl)C(=O)c2[nH]c(C(F)(F)F)nc21 [14h, 6-Chloro-5-((1-(3,4-difluorobenzoyl)piperidin-4-yl)amino)-2-(trifluoromethyl)-1H-benzo[d]imidazole-4,7-dione]
IC50: 0.375 ± 0.033 µM
